Results as given in patent US20030212013A1, “Use of amp kinase activators for treatment type 2 diabetes and insulin resistance” (priority 2002, published 2003).
Several values for one entry are separate records, joined by “and”; a condition that tells them apart may be missing. Equal entries are not always repeated.

Experiments:
AMPK [1] = test: AMPK activity in muscles of rats following AICAR injection; format: in vivo, rat; settings: for AMPK activity increase vs saline: 1 hour following AICAR 1 mg/g injection
From the text: (§1) All procedures were approved by the Institutional Animal Care and Use Committee. Male Sprague-Dawley rats weighing 197±5 grams (Sasco, Wilmington, Mass. 01887) were housed in individual cages in a temperature (22-25 C.) and light-controlled (12:12-h light-dark cycle) room and were given food (Harlan Teklad rodent diet, Madison, Wis.) and water ad libitum. To determine acute in vivo effects of AICAR, a jugular catheter was installed and exteriorized on the back of the neck three days prior to the day of the experiment. This catheter was implanted for the purpose of allowing rapid anesthesia of the rat and rapid blood and tissue collection. Rats were then given AICAR (1 mg/g body weight) subcutaneously in sterile 0.9% NaCl or were given 0.9% NaCl (n=7 in each group). One hour following the subcutaneous injection of AICAR, rats were anesthetized by intravenous injection of pentobarbital (4.8 mg/100 g body weight). The epitrochlearis and gastrocnemius/plantaris muscles were quickly removed and rapidly frozen with stainless steel clamps at liquid nitrogen temperature. Blood was collected via the abdominal aorta and a perchloric acid extract was prepared (0.5 ml blood to 2.0 ml 10% HClO4), neutralized and utilized for analysis of glucose and lactate.
(§2) Muscles from rats killed 1 hour following injection of AICAR or saline were analyzed for AMPK, citrate-dependence of acetyl-CoA carboxylase, malonyl-CoA, glycogen, ZMP, ZTP, ATP, and ADP. Hassid, W Z. & S. Abraham Methods Enzymol. 3:35-36 (1957); McGarry, J. D. et al. J. Biol. Chem. 253:[…] (1978). Blood glucose and lactate were measured by enzymatic techniques. Bergmeyer, H. U., et al. D-Glucose determination with hexokinase and glucose-phosphate dehydrogenase. In: Methods of Enzymatic Analysis, edited by H. U. Bergmeyer. New York: Academic, 1196-1201 (1974); Gutmann I., & A. W. Wahlefeld. L-(+)-Lactate. Determination with lactate dehydrogenase and NAD. In: Methods of Enzymatic Analysis, edited by H. U. Bergmeyer. New York: Academic, 1464-1468 (1974).
Referring to FIG. 1, the AMPK activity in epitrochlearis and gastrocnemius/plantaris muscles of rats 1 hour following injection with 1 mg/g body weight AICAR or with saline is shown. Values are means ±SEM. […] AMPK activity was increased 2.4 fold in gastrocnemius/plantaris muscles and 4 fold in the epitrochlearis muscles 1 hour following the AICAR injection.

[2] = AICAR 0.25 mg/g body weight; normal (C57/BJ6), insulin deficient diabetic (C57/BJ6STZ) and insulin resistant diabetic (KKAy) mice; cited from earlier work
hexokinase = test: Hexokinase activity in muscles after 5 days of AICAR injections; format: in vivo, rat; settings: 5 days AICAR 1 mg/g/d, both epitrochlearis and gastrocnemius/plantaris, p<0.001
Experimental: (§3) To determine the effect of chronic activation of AMPK, rats were injected (between 8 and 10 am.) subcutaneously with AICAR (1 mg/g body weight) or saline vehicle for five days in succession. This dose was shown in preliminary experiments to increase ZMP levels in the muscle to 0.57±0.06 μmol/g after 15 min, to 0.79±0.06 μmol/g after 60 min, to 0.69±0.06 μmol/g after 90 min, and to 0.60±0.06 μmol/g after 120 minutes (n=3 at each time point). Beginning with the first injection, controls were pair fed with AICAR-injected rats. Saline injected controls ate 17±1 g and AICAR injected rats ate 18±1 g of food during the 24 hour period prior to blood and tissue collection. Rats were anesthetized by intraperitoneal injection of pentobarbital (22-25 hrs following the last AICAR injection) and epitrochlearis, and gastrocnemius/plantaris muscles were collected and frozen as described above. Muscles were kept under liquid nitrogen until analyzed.
Hexokinase activity was determined spectrophotometrically at 30 C on 700×g supernatants of the same homogenate as was used for GLUT4 measurement Uyeda, K. & E. Racker, J Biol Chem 240:4682-4688 (1965).

[3] = Preliminary time course of muscle ZMP after AICAR injection; format: in vivo, rat; settings: AICAR 1 mg/g s.c., n=3, preliminary experiments
Experimental: as §3

GLUT4 = test: Total GLUT4 protein (Western blot) in muscles after chronic AICAR injection; format: in vivo, rat
Experimental: as §3, with “This” for “To determine the effect of chronic activation of AMPK, rats were injected (between 8 and 10 am.) subcutaneously with AICAR (1 mg/g body weight) or saline vehicle for five days in succession. This”
(§4) Muscles from rats killed 22-25 hours following the fifth AICAR injection were analyzed for glycogen and GLUT4. For GLUT4 measurement muscle was ground to powder under liquid nitrogen. See Etgen, G. J., et al. Am. J. Physiol. […] Proteins of these homogenates were separated by SDS-PAGE using 10% resolving gels (Tris-HCl ready gels, BIO-RAD, Hercules, Calif.). […] Relative amounts of GLUT4 were then quantified using a Hewlett Packard ScanJet 6200C and SigmaGel software (SPSS, Inc, Chicago, Ill.). Total intensity of GLUT4 spots on the developed hyperfilm was expressed as a fraction of intensity shown by a GLUT4 standard run on the same gel. […]

acetyl-CoA carboxylase = test: Citrate dependence of acetyl-CoA carboxylase in muscles of AICAR-injected rats; format: in vivo, rat; settings: 1 hour following AICAR 1 mg/g
From the text: as §1
Muscles from rats killed 1 hour following injection of AICAR or saline were analyzed for AMPK, citrate-dependence of acetyl-CoA carboxylase, malonyl-CoA, glycogen, ZMP, ZTP, ATP, and ADP. Hassid, W Z. & S. Abraham Methods Enzymol. […] Blood glucose and lactate were measured by enzymatic techniques. […]
Referring to FIG. 2, the citrate dependence of acetyl-CoA carboxylase in gastrocnemius/plantaris muscles of rats 1 hour following injection with AICAR (1 mg/g body weight) or saline is illustrated. Standard errors were determined but are not shown. […] Because of the limited amount of tissue, the entire citrate activation curve could not be determined for epitrochlearis muscle, but the activity of ACC at a physiological concentration of citrate (0.2 mM) was reduced from 0.50±0.10 nmol/g/min to 0.10±0.03 nmol/g/min.

[4] = Tolerability of daily AICAR injections; format: in vivo, rat; settings: rats 197±5 grams, 1 mg/g body weight daily
Experimental: ATP and ADP were not influenced by the injection with AICAR. ZTP increased from non-detectable levels to 1.2 μmol/g. […] Muscle glycogen and liver glycogen were not acutely influenced 60 minutes following a single injection of AICAR.

[5] = Muscle glycogen and food intake after five daily AICAR injections; format: in vivo, rat; settings: 24 hrs following the last of five daily AICAR injections; control 43±2
Experimental: as §3, with “Rats were anesthetized by intraperitoneal injection of pentobarbital (22-25 hrs following the last AICAR injection) and epitrochlearis, and gastrocnemius/plantaris muscles were collected and frozen as described above.” left out
as §4, with “GLUT4.” for “GLUT4. For GLUT4 measurement muscle was ground to powder under liquid nitrogen. See Etgen, G. J., et al. Am. J. Physiol.”

[6] = Tissue and blood metabolites of rats after acute AICAR injection; format: in vivo, rat; settings: AICAR 1 mg/g s.c., 60 minutes following injection, mean ± SEM n=7
From the text: as §1, §2

AMPK [7] = settings: analogues of 5'-AMP; cited from earlier work
[8] = resting rats injected with AICAR

For `NC(=O)c1ncn([C@@H]2O[C@H](CO)[C@@H](O)[C@H]2O)c1N` [AICAR, 5-aminoimidazole-4-carboxamide ribonucleoside], the “AMPK activity increase vs saline” value (AMPK [1]; epitrochlearis muscles) was 4 fold, the “AMPK activity increase vs saline” value (AMPK [1]; gastrocnemius/plantaris muscles) was 2.4 fold and the “Duration of increase in muscle AMPK activity” value (AMPK [1]; [8]) was “at least two”. For the same compound, the “Time to increase in muscle AMPK activity after injection” value (AMPK [1]; [8]) was ≤ 15 min, the “Duration of acute decrease in blood glucose” value [2] was 4 to 6 h and the “Hexokinase activity increase over control values” (hexokinase) was “approximately 2.8 fold”. The “ZMP level in muscle” value ([3]; after 15 min) was 0.57 ± 0.06 µmol/g, the “ZMP level in muscle” value ([3]; after 60 min) was 0.79 ± 0.06 µmol/g and the “ZMP level in muscle” value ([3]; after 90 min) was 0.69 ± 0.06 µmol/g. For the same compound, the “ZMP level in muscle” value ([3]; after 120 minutes) was 0.60 ± 0.06 µmol/g, the “GLUT4 in epitrochlearis and gastrocnemius/plantaris” value (GLUT4; AICAR 1 mg/g/d for five days, vs saline, p<0.001 epitrochlearis, p<0.01 gastrocnemius) was “marked increases” and the “Total GLUT4” value (GLUT4; larger rats (350-450 grams), AICAR 0.5 mg/g body weight, n=5/group, control 0.32±0.05, preliminary experiments) was 0.76±0.08 arbitrary units. The “Activity of ACC at physiological citrate (0.2 mM)” value (acetyl-CoA carboxylase; epitrochlearis, saline 0.50±0.10) was 0.10±0.03 nmol/g/min, the “ACC citrate activation constant (Ka)” value (acetyl-CoA carboxylase; gastrocnemius/plantaris, saline 3.1±0.1) was 13.0 ± 0.3 mM and the “ACC maximal velocity (Vmax) as a function of citrate concentration” value (acetyl-CoA carboxylase; gastrocnemius/plantaris, saline 60.1±1.3) was 32.4 ± 1.3 nmol/g/min. The Tolerance of injections [4] was “no apparent discomfort”, the Gastrocnemius/plantaris glycogen [5] was 87±4 μmol glucose units/g and the “Muscle ADP” value ([6]; gastrocnemius/plantaris) was 0.97 ± 0.02 µmol/g. For the same compound, the “Muscle ATP” value ([6]; gastrocnemius/plantaris) was 7.6 ± 0.1 µmol/g, the “Muscle Glycogen” value ([6]; gastrocnemius/plantaris) was 44 ± 4 µmol/g and the “Muscle Malonyl-CoA” value ([6]; gastrocnemius/plantaris) was 0.6 ± 0.1 nmol/g. For the same compound, the “Muscle ZMP” value ([6]; gastrocnemius/plantaris) was 0.91 ± 0.02 µmol/g, the “Muscle ZTP” value ([6]; gastrocnemius/plantaris) was 1.2 µmol/g and 1.18 ± 0.09 µmol/g and the “Blodd Glucose” value [6] was 5.6 ± 0.6 mM. For the same compound, the “Blood Lactate” value [6] was 6.8 ± 0.5 mM and the “Liver Glycogen” value [6] was 344 ± 44 µmol/g.
For `Nc1ncnc2c([C@@H]3O[C@H](COP(=O)(O)O)[C@@H](O)[C@H]3O)[nH]nc12` [Formycin A 5′-monophosphate], the “Potency of AMPK activation in vitro” value (AMPK [7]) is listed as “less potently”.
For `NC(=O)c1ncn([C@@H]2O[C@H](COP(=O)(O)O)[C@@H](O)[C@H]2O)c1N` [ZMP], the “Potency of AMPK activation in vitro” value (AMPK [7]) is given as “less potently”.
In the case of `Nc1ncnc2c1ncn2[C@@H]1O[C@H](COP(N)(=O)O)[C@@H](O)[C@H]1O` [adenosine 5′-phosphoramidate], the “Potency of AMPK activation in vitro” value (AMPK [7]) is given as “more potently”.
In the case of `Nc1ncnc2c1ncn2[C@@H]1O[C@H](COP(O)(O)=S)[C@@H](O)[C@H]1O` [adenosine-5′-thiomonophosphate], the “Potency of AMPK activation in vitro” value (AMPK [7]) is listed as “more potently”.
